# Read-outs that look alike come from different tables or passages of the source.
# Tests used:
# [1] = tested on: FeCl3-induced occlusive thrombus in rat carotid artery; assay: Rat model of FeCl3-induced platelet-dependent arterial thrombosis; type: in vivo; conditions: for ED50: Rattus norvegicus, read-out: ED50 for thrombus prevention in the FeCl3 model of arterial thrombosis; for Incidence of Occlusion: single intravenous bolus 5 minutes before FeCl3, n = 6, 60 minutes, saline 6/6
# Source text: Kurz, K. D., Main, B. W., and Sandusky, G. E., Thromb. […] In this model a platelet-rich, occlusive thrombus is formed in a segment of the rat carotid artery treated locally with a fresh solution of FeCl3 absorbed to a piece of filter paper. The FeCl3 is thought to diffuse into the treated segment of artery and causes de-endothelialization of the affected vessel surface. […] The effect of a test compound on the incidence of occlusive thrombus formation following the application of the FeCl3 is monitored by ultrasonic flowtometry and is used as the primary end point. The use of flowtometry to measure carotid artery blood flow, is a modification of the original procedure in which thermal detection of clot formation was employed. Kurz, K. D., Main, B. W., and Sandusky, G. E., Thromb.
# The animals were prepared, anesthetized with Nembutal followed by the insertion of catheters for blood pressure monitoring, drug and anesthesia delivery. The left carotid artery was isolated by making a midline cervical incision followed by blunt dissection and spreading techniques to separate a 2 cm segment of the vessel from the carotid sheath. A silk suture is inserted under the proximal and distal ends of the isolated vessel to provide clearance for the placement of a ultrasonic flow probe (Transonic) around the proximal end of the vessel. The probe is then secured with a stationary arm.
# Following surgery the animals were randomized in either a control (saline) or treatment group with test compound (Isomer B) with at least 6 animals per group per dose. The test compound was administered as a single intravenous bolus at the doses outlined in Table 3 after placement of the flow probe and 5 minutes prior to the thrombogenic stimulus. […] Blood pressure, blood flow, heart rate, and respiration were monitored for 60 minutes.
# The incidence of occlusion (defined as the attainment of zero blood flow) was recorded as the primary end point and as a measure of the antithrombotic efficacy of Isomer B.
# thrombin = conditions: literature; cited from earlier work
# [2] = tested on: rat plasma clotting (APTT); assay: Ex vivo anticoagulant effect, APTT in citrated rat plasma
# Source text: (§1) The control clotting times (0 inhibitor) for rat and human plasma were 19 seconds and 29 seconds, respectively. The concentration of BzlSO2 -norVal(cyclo)-Gly-Ala(3-guanPip)al which caused a doubling of the control clotting time in rat and human plasma was 12.7 micromolar and 9.1 micromolar, respectively. The data is the mean of two independent determinations.
# (§2) Fresh frozen citrated pooled normal human plasma was obtained from George King Biomedical, Overland Park, Kans. Pooled normal rat plasma was prepared from citrated whole blood collected from anesthetized rats using standard procedures. The plasma was flash frozen and stored at -80° C. until use. Measurements APTT was made using the Coag-A-Mate RA4 automated coagulometer (General Diagnostics, Organon Technica, Oklahoma City, Okla.) using the Automated APTT reagent (Organon Technica, Durham, N.C.) as the initiator of clotting according to the manufacturers instructions. The assay was conducted by making a series of dilution's of Isomer B in rapidly thawed plasma followed by adding 200 microliters to the wells of the assay carousel.
# plasmin = plasmin (Homo sapiens, UniProt P00747); assay: Plasmin assay (specificity determination); type: biochemical; conditions: maximal concentration 25,000 nM, mean of at least two independent experiments
# Description: Plasmin catalytic activity was determined using the chromogenic substrate, S-2251 [D-valyl-L-leucyl-L-lysine-p-nitroanilide], which was obtained from Kabi Diagnostica.
# [3] = tested on: human plasma clotting (APTT); assay: Ex vivo anticoagulant effect, APTT in citrated human plasma
# Source text: as §1, §2
# human alpha-thrombin [4] = target: T1, human alpha-thrombin (Homo sapiens, UniProt P00734); conditions: Table 4, human alpha-thrombin
# Description: Enzyme activity was determined using the chromogenic substrate Pefachrome t-PA (CH3 SO2 -D-hexahydrotyrosine-glycyl-L-Arginine-p-nitroanilide), obtained from Pentapharm Ltd. The substrate was reconstituted in deionized water prior to use. Purified human alpha-thrombin (3000U/mg specific activity) was obtained from Enzyme Research Laboratories, Inc. The buffer used for all assays was HBSA (10 mM HEPES, pH 7.5, 150 mM sodium chloride, 0.1%, bovine serum albumin).
# Velocities of chromogenic substrate hydrolysis which occurred over 40 min was measured by the change in absorbance at 405 nm using a Thermo Max® Kinetic Microplate Reader. […] The extent of substrate hydrolysis was less than 5% over the course of this assay.
# human alpha-thrombin [5] = target: T1, human alpha-thrombin; assay: biochemical
# Description: The buffer used for all assays was HBSA (10 mM HEPES, pH 7.5, 150 mM sodium chloride, 0.1% bovine serum albumin). […] Following a 30-minute incubation at ambient temperature, 50 microliters of the substrate at the concentrations specified below, was added to the wells yielding a final total volume of 200 microliters. The initial velocity of chromogenic substrate hydrolysis was measured by the change in absorbance at 405nm using a Thermo Max® Kinetic Microplate Reader over a 5 minute period in which less than 5% of the added substrate was utilized.
# Thrombin catalytic activity was determined using the chromogenic substrate Pefachrome t-PA (CH3 SO2 -D-hexahydrotyrosine-glycyl-L-arginine-p-nitroanilide, obtained from Pentapharm Ltd.). The substrate was made up in deionized water followed by dilution in HBSA prior to the assay in which the final concentration was 300 micromolar (about 5-times Km). Purified human alpha-thrombin was obtained from Enzyme Research Laboratories, Inc. The enzyme was diluted into HBSA prior to the assay in which the final concentration was 0.25 nM.
# [6] = literature; cited from earlier work
# [7] = literature; cited from earlier work; remark: listed apart in the source
# Sequence of plasmin (P00747 581-810 limits assumed): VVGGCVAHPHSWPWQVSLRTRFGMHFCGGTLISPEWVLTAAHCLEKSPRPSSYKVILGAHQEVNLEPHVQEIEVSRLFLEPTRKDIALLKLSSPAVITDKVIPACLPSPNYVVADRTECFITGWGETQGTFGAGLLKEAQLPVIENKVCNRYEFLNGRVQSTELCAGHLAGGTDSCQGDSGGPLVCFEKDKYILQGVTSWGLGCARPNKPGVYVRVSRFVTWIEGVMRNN
# Sequence of plasmin (P00747 97-580 limits assumed): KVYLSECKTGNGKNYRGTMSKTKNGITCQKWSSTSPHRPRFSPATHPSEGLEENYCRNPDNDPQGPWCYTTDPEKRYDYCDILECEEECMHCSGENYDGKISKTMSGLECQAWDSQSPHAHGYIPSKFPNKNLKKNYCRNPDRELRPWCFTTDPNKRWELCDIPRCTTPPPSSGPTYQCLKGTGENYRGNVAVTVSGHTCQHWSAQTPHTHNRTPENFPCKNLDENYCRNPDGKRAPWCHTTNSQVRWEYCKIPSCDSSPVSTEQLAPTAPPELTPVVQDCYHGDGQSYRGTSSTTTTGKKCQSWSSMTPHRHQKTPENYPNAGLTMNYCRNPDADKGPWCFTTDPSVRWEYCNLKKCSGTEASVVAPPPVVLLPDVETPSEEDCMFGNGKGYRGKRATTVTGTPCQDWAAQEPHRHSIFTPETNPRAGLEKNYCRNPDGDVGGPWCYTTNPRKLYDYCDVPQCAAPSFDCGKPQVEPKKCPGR
smiles,measurement,setting,value
"CC1CNc2c(cccc2S(=O)(=O)N[C@@H](CCCNC(=N)N)C(=O)N2CC[C@@H](C)C[C@@H]2C(=O)O)C1 (stereo partly drawn) [Argatroban, 2R,4R-4-methyl-1-[N-2-(3-methyl-1,2,3,4-tetrahydro-8-quinolinesulfonyl)-L-argininal]-2-piperdinecarboxylic acid, reference compound]",ED50,[1]; dose that prevents complete thrombotic occlusion in 50% of animals tested,3.8 mg/kg
"CS(=O)(=O)O.CS(=O)(=O)O.N=C(N)Nc1ccc(C(=O)Oc2ccc3cc(C(=N)N)ccc3c2)cc1 [FUT 175, 6-amidino-2-naphthyl-4-guanidinobenzoate dimethanesulfonate]",selectivity of thrombin inhibition,thrombin,non-selective
"N=C(N)N1CCCC(C[C@@H](C=O)NC(=O)CN2CCC[C@H](NS(=O)(=O)Cc3ccccc3)C2=O)C1 (single isomer, unassigned) [Isomer B]",prolongation of the APTT,[2],prolonged the APTT in a dose dependent manner
same,IC50,plasmin,> 25000 nM
same,concentration which caused a doubling of the control clotting time (APTT),"[3]; citrated human plasma, control clotting time 29 seconds, mean of two independent determinations",9.1 µM
same,prolongation of the APTT,[3]; human plasma,prolonged the APTT in a dose dependent manner
same,Ki,human alpha-thrombin [4],0.318 nM
same,IC50,human alpha-thrombin [5],0.9 nM
same,Incidence of Occlusion,[1]; 0.3 mg/kg,6/6
same,Incidence of Occlusion,[1]; 1.0 mg/kg,4/6
same,Incidence of Occlusion,"[1]; 3.0 mg/kg, p ≤ 0.05 from saline control by Fishers test",0/6
same,ED50,[1],1.4 mg/kg
"N=C(N)c1ccc(CC(=O)C(=O)O)cc1 [APPA, 4-amidinophenylpyruvic acid]",pharmacokinetics,[6],favourable pharmacokinetics
same,toxicity,[7],low toxicity
same,selectivity of thrombin inhibition,thrombin,"non-selective, inhibiting trypsin, plasmin and kallikrein"

# Reference: patent publication US5714499A, “3-amino-2-oxo-1-piperidineacetic derivatives containing an arginine mimic as enzyme inhibitors” (Corvas International, Inc., priority 1994, dated 1998)
